Reference: patent publication US8765920B2, “Tyrosine bioconjugation through aqueous Ene-like reactions” (priority 2009, dated 2014)

Test: Stability study of modified p-cresol under thermal conditions
Format: physicochemical
Conditions: 120° C. for 1 h
Procedure: Compound 4, the product of the reaction of p-cresol and PTAD, was subjected to both strongly acidic and basic conditions for 24 hours at room temperature or high temperature (120° C.) for 1 hr. […] These conditions are extremely harsh for a peptide or protein.
The relative stability of the C—N bond formed in the products was studied using p-cresol as a model phenol. As shown in Scheme 11, p-cresol was reacted with PTAD in tetrahydrofuran in the presence of sodium hydride to provide adduct in 75% isolated yield. Compound 8f was subjected to both strong acidic and basic conditions for 24 hours at room temperature or high temperature (120° C.) for 1 h.
Compound 4 (4.00 mg, 0.0141 mmol) was heated at 120° C. for 1 h according to the literature. The recovery of 4 was 4.00 mg (quant.).
Compound 23 (4.00 mg, 0.0141 mmol) was heated at 120° C. for 1 h according to literature. The recovery of 23 was 4.00 mg (quant.).

SMILES: Cc1ccc(O)c(-n2[nH]c(=O)n(-c3ccccc3)c2=O)c1 [Compound 4, 1-(2-hydroxy-5-methylphenyl)-4-phenyl-1,2,4-triazolidine-3,5-dione]
- decomposition by 1H NMR after heating: wasn't detected
